Measured values: PMC4063695, “Design of Embedded-Hybrid Antimicrobial Peptides with Enhanced Cell Selectivity and Anti-Biofilm Activity” (PLoS ONE, 2014)
No end group written: not given here.

Experiments:
[1] = system: P. aeruginosa variant 1; conditions: P. aeruginosa variant 1, obtained by step-wise culture with ciprofloxacin hydrochloride; MHB, 37°C, 18-24 h
From the text: (§1) E. coli ATCC25922, P. aeruginosa ATCC27853, S. aureus ATCC29213, S. epidermidis ATCC12228, S. faecalis ATCC29212 and B. subtilis CMCC63501 were obtained from the College of Veterinary Medicine, Northeast Agricultural University (Harbin, China), E. coli K88, E. coli CVCC1515 and P. aeruginosa ATCC15442 were bestowed by Prof. J.H. Wang (Gene Engineering Laboratory, Feed Research Institute, Chinese Academy of Agricultural Sciences Beijing, China) and E. coli UB1005 was kindly provided by Prof. Q.S. Qi (State Key Laboratory of Microbial Technology, Shandong University, China). […] Briefly, 50 µl of approximate 0.5–1 × 10^6 colony forming units (CFU)/ml of cells were diluted in Mueller-Hinton broth and distributed to 96-well plate, 50 µl of twofold peptides were added and the plates was incubated at 37°C for 18–24 h. The MIC values were calculated as the lowest peptide concentration that prevented visible turbidity and negative control of the pure broth without microbes. The tests were performed at least three times in duplicate.

[2] = system: S.faecalis ATCC29212; conditions: S.faecalis ATCC29212; MHB, 37°C, 18-24 h; at least three times in duplicate
From the text: as §1

[3] = system: E. coli UB1005; conditions: E. coli UB1005; MHB, 37°C, 18-24 h; at least three times in duplicate
From the text: as §1

[4] = system: E. coli ATCC25922; conditions: E. coli ATCC25922; MHB, 37°C, 18-24 h; at least three times in duplicate
From the text: as §1

[5] = system: P. aeruginosa ATCC15442; conditions: P. aeruginosa ATCC15442; MHB, 37°C, 18-24 h; at least three times in duplicate
From the text: as §1

[6] = system: E. coli K88; conditions: MHB, 37°C, 18-24 h, at least three times in duplicate
From the text: as §1

[7] = system: P. aeruginosa variant 2; conditions: P. aeruginosa variant 2, obtained by step-wise culture with gentamicin; MHB, 37°C, 18-24 h
From the text: as §1

[8] = system: S. pullorum C79-13; conditions: S. pullorum C79-13; MHB, 37°C, 18-24 h; at least three times in duplicate
From the text: as §1

[9] = system: B. subtilis CMCC63501; conditions: B. subtilis CMCC63501; MHB, 37°C, 18-24 h; at least three times in duplicate
From the text: as §1

[10] = system: S. typhimurium ATCC14028; conditions: S. typhimurium ATCC14028; MHB, 37°C, 18-24 h; at least three times in duplicate
From the text: as §1

[11] = system: E. coli CVCC1515; conditions: E. coli CVCC1515; MHB, 37°C, 18-24 h; at least three times in duplicate
From the text: as §1

[12] = system: S.epidermidis ATCC12228; conditions: S.epidermidis ATCC12228; MHB, 37°C, 18-24 h; at least three times in duplicate
From the text: as §1

[13] = system: S.aureus ATCC29213; conditions: S.aureus ATCC29213; MHB, 37°C, 18-24 h; at least three times in duplicate
From the text: as §1

[14] = system: E. coli UB1005; assay: Cytoplasmic membrane electrical potential, diSC3-5; format: cell-based, Escherichia coli; conditions: diSC3-5 release over 600 s
Procedure: Peptides could alter the electrical potential of cytoplasmic membrane, and this potential that was measured by using E. coli UB1005 cells and diSC3-5 (Sigma), a membrane potential-sensitive fluorescent dye, as previously described, [35]. E. coli UB1005 was cultured to logarithmic phase in MHB, harvested by centrifugation, washed twice with buffer (5 mM of HEPES and 20 mM of glucose, pH 7.4) and resuspended to an OD600 of 0.05 in the identical buffer. The dye (diSC3-5) was added to above buffer at a final concentration of 0.4 µM. And the bacteria were incubated to take up the dye for 90 min. KCl was added to a final concentration of 0.1 M for equilibrating K^+ concentration between extracellular and intracellular environment, and then the bacteria were incubated at room temperature for 10 min. The cell suspension (2 ml) was placed in a 1-cm cuvette, and the peptides were added to different concentrations. The fluorescence intensity changes were monitored by using an F-4500 fluorescence spectrophotometer (Hitachi, Japan) with an excitation wavelength of 622 nm and an emission wavelength of 670 nm.

RFRRLFRIRVRVLKKI-NH2 [R-FV-I16] showed an MIC [1] of 2 µM, an MIC [2] of 1 µM and an MIC [3] of 4 µM. It also gave an MIC [4] of 1 µM, an MIC [5] of 2 µM and an MIC [6] of 2 µM. The MIC [7] was 4 µM, the MIC [8] was 1 µM and the MIC [9] was 1 µM. It also gave an MIC [10] of 2 µM, an MIC [11] of 2 µM and an MIC [12] of 4 µM. For the same substance, the MIC [13] was 2 µM and the “cytoplasmic membrane depolarization (in words)” value [14] was “able to permeabilize the bacterial cell membrane even at a lower concentration than their MICs”.
